Source: ChEMBL document CHEMBL1138702, “Determination of the free radical scavenging activity of dihydropyran-2,4-diones” (Bioorg Med Chem Lett, 2004)

How the values were obtained:
[1] = Antioxidant ability determined by the parameter antiradical power that is related to the factor EC50
[2] = Concentration required to decrease the initial concentration of 2,2-diphenyl-1-picrylhydrazyl (DPPH) by 50% after 60 min

ARP [1]	EC50 [2]	SMILES
0.71 m/M	1.4 mM	O=C1CC(=O)OC(c2ccccc2)C1 (stereo not drawn)
0.14 m/M	7.13 mM	COc1ccc(C2CC(=O)CC(=O)O2)cc1OC (stereo not drawn)
0.13 m/M	7.61 mM	COc1ccc(C2CC(=O)CC(=O)O2)cc1 (stereo not drawn)
0.7 m/M	1.44 mM	C/C=C/C1CC(=O)CC(=O)O1 (stereo not drawn)
